In patent publication US20150273013A1, “AGONISTS OF GUANYLATE CYCLASE USEFUL FOR THE TREATMENT OF GASTROINTESTINAL DISORDERS, INFLAMMATION, CANCER AND OTHER DISORDERS” (Synergy Pharmaceuticals, Inc., priority 2014, published 2015):
Bridges are numbered along the chain shown (N, C = ends). Where no end group is shown, it is not given here. [ ]: non-standard residue; d: D form.

Experiments:
[1] = tested on: inflammatory (TNBS) induced hypersensitivity to colorectal distension (CRD); assay: TNBS (inflammatory) induced hypersensitivity to colorectal distension, oral treatment; format: in vivo, rat; conditions: for colonic wall elasticity / number of abdominal contractions in response to CRD: TNBS model, oral doses of 0.01 and 0.05 mg/kg; for number of abdominal contractions in response to CRD: intracolonic distension pressures between 15 and 60 mm Hg; for colonic volume adaptation to increasing pressure: after TNBS instillation, pressures between 15 and 60 mm Hg
Protocol: (§1) Oral Treatment with Plecanatide and Sp-333, Agonists of Guanylate Cyclase-C, Attenuates Visceral Hypersensitivity in Rat Models
(§2) Oral treatment with plecanatide (Asn Asp Glu Cys Glu Leu Cys Val Asn Val Ala Cys Thr Gly Cys Leu) or SP-333 (dAsn Asp Glu Cys Glu Leu Cys Val Asn Val Ala Cys Thr Gly Cys dLeu), homologues of UG, was evaluated in rodent models of inflammatory (TNBS) and non-inflammatory partial restraint stress induced hypersensitivity to colorectal distension (CRD).

[2] = tested on: non-inflammatory partial restraint stress induced hypersensitivity to colorectal distension (CRD); assay: Partial restraint stress induced hypersensitivity to colorectal distension, oral treatment; format: in vivo, rat; conditions: partial restraint stress model, oral doses of 0.01 and 0.05 mg/kg; for number of abdominal contractions in response to CRD: intracolonic distension pressures between 15 and 60 mm Hg
Protocol: as §1, §2

[3] = tested on: colitis in murine models; conditions: oral treatment, Shailubhai et al. 2009; cited from earlier work

Row | Substance | colonic wall elasticity [1] | number of abdominal contractions in response to CRD [1] | colonic volume adaptation to increasing pressure [1] | colonic wall elasticity [2] | number of abdominal contractions in response to CRD [2] | effect on colitis [3]
1 | Asn Asp Glu Cys Glu Leu Cys Val Asn Val Ala Cys Thr Gly Cys Leu (NDECELCVNVACTGCL; disulfide 4-12, 7-15) [plecanatide, GC-C agonist, homologue of uroguanylin, (C4:C12, C7:C15) bicycle peptide] | without significantly altering | effectively reduced | reduced | without significantly altering | effectively reduced | ameliorate colitis
2 | dAsn Asp Glu Cys Glu Leu Cys Val Asn Val Ala Cys Thr Gly Cys dLeu ([dN]DECELCVNVACTGC[dL]; disulfide 4-12, 7-15) [SP-333, GC-C agonist, homologue of uroguanylin, (C4:C12, C7:C15) bicycle peptide] | without significantly altering | effectively reduced | reduced | without significantly altering | effectively reduced | ameliorate colitis
